Assay results: article PMC7400577 (Scientific Reports, 2020)
Numbering of substitutions follows the chain as printed. Where two headings read alike, the source gives them in different places.

Key:
hGAT3 L314Q = molecular target: T1, hGAT3 L314Q (Homo sapiens, UniProt P48066, L314Q); assay: [3H]GABA uptake inhibition at hGAT3 L314Q transiently expressed in tsA201 cells; format: cell-based; settings: 30 nM [3H]GABA, transient expression
T1 construct: expressed in transfected cells; host or cells: tsA201 cells, transient (PolyFect), pcDNA5/FRT vector
T1 sequence (P48066 1-632 L314Q): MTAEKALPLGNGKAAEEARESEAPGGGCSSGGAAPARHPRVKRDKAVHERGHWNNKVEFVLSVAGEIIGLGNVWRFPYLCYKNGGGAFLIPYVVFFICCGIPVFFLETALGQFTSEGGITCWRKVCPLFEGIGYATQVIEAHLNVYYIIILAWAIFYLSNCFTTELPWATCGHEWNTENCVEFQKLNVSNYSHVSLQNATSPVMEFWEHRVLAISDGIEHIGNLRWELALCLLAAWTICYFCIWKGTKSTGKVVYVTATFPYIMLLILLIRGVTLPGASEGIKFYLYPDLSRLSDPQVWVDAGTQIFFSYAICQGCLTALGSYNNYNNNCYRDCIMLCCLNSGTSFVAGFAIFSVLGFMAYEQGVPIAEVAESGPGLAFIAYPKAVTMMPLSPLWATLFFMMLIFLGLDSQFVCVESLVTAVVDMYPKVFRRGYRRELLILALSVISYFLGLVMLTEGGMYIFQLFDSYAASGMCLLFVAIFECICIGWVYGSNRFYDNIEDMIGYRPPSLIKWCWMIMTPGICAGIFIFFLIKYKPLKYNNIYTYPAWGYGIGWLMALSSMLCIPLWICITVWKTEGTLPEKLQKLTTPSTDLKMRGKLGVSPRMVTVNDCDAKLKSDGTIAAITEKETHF

hGAT3 wt = molecular target: T2, hGAT3 wt (Homo sapiens, UniProt P48066); assay: [3H]GABA uptake inhibition at wt hGAT3 transiently expressed in tsA201 cells; format: cell-based; settings: 30 nM [3H]GABA, transient expression
T2 construct: expressed in transfected cells; host or cells: tsA201 cells, transient (PolyFect), pcDNA5/FRT vector
T2 sequence (P48066 1-632): T1 sequence (P48066 1-632 L314Q) with Q314L

BGT1 = settings: competitive BGT1 inhibitor; cited from earlier work

Structure (SMILES) | IC50 (hGAT3 L314Q; read-out: IC50 GAT3 L314Q) | IC50 (hGAT3 L314Q; read-out: pIC50 ± S.E.M. GAT3 L314Q (converted)) | IC50 (hGAT3 wt; read-out: IC50 GAT3 wt) | IC50 (hGAT3 wt; read-out: pIC50 ± S.E.M. GAT3 wt (converted)) | IC50 (BGT1)
NCCCC(=O)O [GABA, γ-Aminobutyric acid, reference compound] | 5.2 µM | 5.13 µM | 8.2 µM | 7.94 µM | –
N[C@@]12CC[C@H](C(=O)O)[C@@H]1C2 [compound 1] | – | – | – | – | 0.59 µM
